15 compounds from patent US20250051363A1, “Substituted Pyrazolopyridines” (Neuro3 Therapeutics, Inc., priority 2023, published 2025) can be followed below.

The target of the experiment is LRRK2 wild-type (Homo sapiens (Human), UniProt Q5S007). The experiment can be described thus: LanthaScreen LRRK2 Biochemical Activity Assay. The note with it: human recombinant LRRK2 (amino acids 970-2527) wild-type, ATP 57 μM, TR-FRET; read-out: IC50 (nM), inhibition of LRRK2 wild-type kinase activity. Here is the method: The ability of a compound of Formula (I) to inhibit LRRK2 kinase activity is measured using a LanthaScreen™ kinase activity assay. In general, in a LanthaScreen™ kinase activity assay, kinase, fluorescein-labeled substrate, and ATP are allowed to react. Then EDTA (to stop the reaction) and terbium-labeled antibody (to detect phosphorylated product) are added. In a LanthaScreen™ kinase reaction, the antibody associates with the phosphorylated fluorescein labeled substrate resulting in an increased TR-FRET value. The TR-FRET value is a dimensionless number that is calculated as the ratio of the acceptor (fluorescein) signal to the donor (terbium) signal. The amount of antibody that is bound to the tracer is directly proportional to the amount of phosphorylated substrate present, and in this manner, kinase activity can be detected and measured by an increase in the TR-FRET value. Accordingly, in this Example, enzyme reactions are carried out in a kinase reaction buffer in the presence or absence of representative compounds of Formula (I) at various concentrations in 384-well plate at room temperature for 60 minutes. The kinase reaction buffer contains human recombinant LRRK2 protein (amino acids 970-2527, 5 nM), ATP (57 μM for LRRK2 wild-type, 134 μM for G2019S mutant protein), Fluorescein-LRRKtide substrate (0.4 mM), 50 mM Tris pH 7.5, 10 mM MgCl2, 1 mM EGTA, 0.01% Brij™-35, and 2 mM DTT. The final reaction volume for each reaction is 10 μL. The reactions are initated by adding the substrate and stopped by the addition of 10 μL of a TR-FRET dilution buffer supplemented with a kinase quench buffer (10 mM EDTA final) and Tb-anti-pLRRKtide (2 nM final). The plate is further incubated at room temperature for another 60 minutes, and the fluorescent signals are read on an EnVision® multilabel plate reader (PerkinElmer, Waltham, MA) with excitation at 340 nm and emission at 495 and 520 nm. The assay signal is determined as a ratio of FRET-specific signal measured with emission filter at 520 nm to that of the signal measured with Tb-specific emission filter at 495 nm. IC50 values for compound-mediated enzyme inhibition are calculated using appropriate programs in GraphPad Prism software by plotting the logarithm of the compound concentrations versus percent inhibition. All reagents are purchased from Thermo Fisher Scientific.
Sequence of LRRK2 wild-type (Q5S007 970-2527): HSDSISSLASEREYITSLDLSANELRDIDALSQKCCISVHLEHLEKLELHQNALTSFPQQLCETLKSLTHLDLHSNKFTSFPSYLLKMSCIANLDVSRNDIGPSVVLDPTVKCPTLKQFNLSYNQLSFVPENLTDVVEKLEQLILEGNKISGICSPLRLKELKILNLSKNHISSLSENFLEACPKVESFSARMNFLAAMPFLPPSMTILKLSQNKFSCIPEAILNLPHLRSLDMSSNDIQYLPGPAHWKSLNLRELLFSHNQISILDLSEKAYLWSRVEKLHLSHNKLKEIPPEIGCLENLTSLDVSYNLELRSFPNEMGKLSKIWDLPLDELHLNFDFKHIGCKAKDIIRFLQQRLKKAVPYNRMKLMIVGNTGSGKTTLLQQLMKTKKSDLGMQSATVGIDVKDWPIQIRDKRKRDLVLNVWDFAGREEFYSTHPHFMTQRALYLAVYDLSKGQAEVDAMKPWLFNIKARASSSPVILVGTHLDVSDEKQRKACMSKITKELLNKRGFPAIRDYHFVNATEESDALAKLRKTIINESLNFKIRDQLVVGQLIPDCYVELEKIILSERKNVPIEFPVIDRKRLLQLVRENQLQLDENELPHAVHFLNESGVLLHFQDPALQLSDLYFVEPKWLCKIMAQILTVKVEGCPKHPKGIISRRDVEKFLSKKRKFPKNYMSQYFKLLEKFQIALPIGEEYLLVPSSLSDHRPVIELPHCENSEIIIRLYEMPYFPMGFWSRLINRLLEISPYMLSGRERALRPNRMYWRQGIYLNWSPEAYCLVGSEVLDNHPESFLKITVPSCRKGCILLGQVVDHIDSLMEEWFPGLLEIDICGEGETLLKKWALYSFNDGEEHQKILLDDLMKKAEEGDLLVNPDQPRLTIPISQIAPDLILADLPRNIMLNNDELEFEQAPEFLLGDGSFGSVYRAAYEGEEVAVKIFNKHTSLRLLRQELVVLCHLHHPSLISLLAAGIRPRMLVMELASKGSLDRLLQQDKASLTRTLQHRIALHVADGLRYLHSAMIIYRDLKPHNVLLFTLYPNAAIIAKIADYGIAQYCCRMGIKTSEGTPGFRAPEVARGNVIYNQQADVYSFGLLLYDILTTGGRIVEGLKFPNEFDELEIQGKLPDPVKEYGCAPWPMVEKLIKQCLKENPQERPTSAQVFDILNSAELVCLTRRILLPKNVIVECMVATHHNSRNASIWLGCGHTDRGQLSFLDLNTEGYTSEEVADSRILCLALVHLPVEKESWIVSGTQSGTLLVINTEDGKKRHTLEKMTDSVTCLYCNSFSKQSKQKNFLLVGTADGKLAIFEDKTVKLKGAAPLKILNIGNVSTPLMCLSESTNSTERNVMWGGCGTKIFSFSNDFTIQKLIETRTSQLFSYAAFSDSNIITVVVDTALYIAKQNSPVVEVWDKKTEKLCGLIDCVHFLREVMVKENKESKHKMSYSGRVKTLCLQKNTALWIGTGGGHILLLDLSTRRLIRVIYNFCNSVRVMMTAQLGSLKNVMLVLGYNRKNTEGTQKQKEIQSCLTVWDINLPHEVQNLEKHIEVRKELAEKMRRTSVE
A general note: Time-resolved FRET reads energy transfer from a long-lived donor to a nearby acceptor.

As a reminder, the IC50 is the concentration needed to halve the response being measured. In the case of `CS(=O)(=O)NCCC(=O)Nc1ccn2ncc(-c3cccc(C4CCCNC4)n3)c2c1` (stereo not drawn) [Example 22, 3-(methylsulfonamido)-N-(3-(6-(piperidin-3-yl)pyridin-2-yl)pyrazolo[1,5-a]pyridin-5-yl)propanamide], the IC50 lay within 11 to 100 nM.

As to `CC(C)Oc1ccn2ncc(-c3cccc(C4CCCNC4)n3)c2c1` (stereo not drawn) [Example 13, 5-isopropoxy-3-[6-(3-piperidyl)-2-pyridyl]pyrazolo[1,5-a]pyridine], the concentration for half-maximal inhibition (IC50) is 11 to 100 nM.

With `C[C@@H]1CN(c2cc(F)cc(-c3cnn4ccccc34)n2)C[C@H](C)N1` [Example 52, 3-[6-[(3R,5S)-3,5-dimethylpiperazin-1-yl]-4-fluoro-2-pyridyl]pyrazolo[1,5-a]pyridine], the concentration for half-maximal inhibition (IC50) lay in the range of 11 to 100 nM.

For the compound `C[C@@H]1CN(c2cccc(-c3cnn4ccc(Cl)cc34)n2)C[C@H](C)N1` [Example 57, 5-chloro-3-[6-[(3R,5S)-3,5-dimethylpiperazin-1-yl]-2-pyridyl]pyrazolo[1,5-a]pyridine], the concentration for half-maximal inhibition (IC50) is at most 10 nM.

Turning to `C[C@@H]1CN(c2cccc(-c3cnn4ccccc34)n2)C[C@@H](C)N1` [Example 50, 3-[6-[(3R,5R)-3,5-dimethylpiperazin-1-yl]-2-pyridyl]pyrazolo[1,5-a]pyridine], the 50% inhibitory concentration (IC50) was in the range of 11 to 100 nM.

With `CNc1ccn2ncc(-c3cccc(N4CCNCC4)n3)c2c1` [Example 38, N-methyl-3-(6-piperazin-1-yl-2-pyridyl)pyrazolo[1,5-a]pyridin-5-amine], the IC50 lay in the range of 11 to 100 nM.

With `FC(F)(F)c1ccn2ncc(-c3cccc(N4CCNCC4)n3)c2c1` [Example 40, 3-(6-piperazin-1-yl-2-pyridyl)-5-(trifluoromethyl)pyrazolo[1,5-a]pyridine], the IC50 was 11 to 100 nM.

`Nc1ccn2ncc(-c3cccc(C4CCCNC4)n3)c2c1` (stereo not drawn) [Example 19, 3-[6-(3-piperidyl)-2-pyridyl]pyrazolo[1,5-a]pyridin-5-amine]: the IC50 is 101 to 400 nM.

As for `COc1ccn2ncc(-c3cccc(C4CCCNC4)n3)c2c1` (stereo not drawn) [Example 11, 5-methoxy-3-[6-(3-piperidyl)-2-pyridyl]pyrazolo[1,5-a]pyridine], the 50% inhibitory concentration (IC50) is 11 to 100 nM.

Regarding `c1cc(-c2cnn3ccc(N4CCOCC4)cc23)nc(C2CCCNC2)c1` (stereo not drawn) [Example 16, 4-[3-[6-(3-piperidyl)-2-pyridyl]pyrazolo[1,5-a]pyridin-5-yl]morpholine], the IC50 was in the range of 101 to 400 nM.

For `C[C@@H]1CN(c2nc(-c3cnn4ccc(Cl)cc34)ccc2Cl)C[C@H](C)N1` [Example 60, 5-chloro-3-[5-chloro-6-[(3S,5R)-3,5-dimethylpiperazin-1-yl]-2-pyridyl]pyrazolo[1,5-a]pyridine], the IC50 fell in the range of 101 to 400 nM.

As to `CNc1ccn2ncc(-c3cc(Cl)cc(C4CCCNC4)n3)c2c1` (stereo not drawn) [Example 62, 3-[4-chloro-6-(3-piperidyl)-2-pyridyl]-N-methyl-pyrazolo[1,5-a]pyridin-5-amine], the half-maximal inhibitory concentration (IC50) is 11 to 100 nM.

Consider `C[C@@H]1CN(c2nc(-c3cnn4ccc(Cl)cc34)ccc2F)C[C@H](C)N1` [Example 61, 5-chloro-3-[6-[(3S,5R)-3,5-dimethylpiperazin-1-yl]-5-fluoro-2-pyridyl]pyrazolo[1,5-a]pyridine], for which the concentration for half-maximal inhibition (IC50) is at most 10 nM.

Turning to `CN1CCC(c2cccc(-c3cnn4ccccc34)n2)CC1` [Example 2, 3-[6-(1-methyl-4-piperidyl)-2-pyridyl]pyrazolo[1,5-a]pyridine], the half-maximal inhibitory concentration (IC50) was in the range of 101 to 400 nM.

`CNc1ccn2ncc(-c3cccc(N4C[C@@H](C)N[C@@H](C)C4)n3)c2c1` [Example 53, 3-[6-[(3S,5R)-3,5-dimethylpiperazin-1-yl]-2-pyridyl]-N-methyl-pyrazolo[1,5-a]pyridin-5-amine]: the IC50 is 11 to 100 nM.
